{"source": "ChEMBL document CHEMBL2440076", "about": "“New triarylpyrazoles as broad-spectrum anticancer agents: design, synthesis, and biological evaluation” (Eur J Med Chem, 2013)", "format_in_all_cases": "functional", "key": {"[1]": {"test": "Growth inhibition of human NCI-ADR-RES cells assessed as cell growth at 3X10'-6 M after 48 hrs by sulforhodamine B assay", "conditions": "read-out: Activity"}, "A498 [2]": {"test_system": "A498", "test": "Growth inhibition of human A498 cells assessed as cell growth at 3X10'-7 M after 48 hrs by sulforhodamine B assay", "conditions": "A498, 48 h, read-out: Activity"}, "HL-60(TB)": {"test_system": "HL-60(TB)", "test": "Growth inhibition of human HL-60(TB) cells assessed as cell growth at 3X10'-9 M after 48 hrs by sulforhodamine B assay", "conditions": "HL-60, 48 h, read-out: Activity"}, "SNB-19": {"test_system": "SNB-19", "test": "Growth inhibition of human SNB19 cells assessed as cell growth at 3X10'-5 M after 48 hrs by sulforhodamine B assay", "conditions": "SNB-19, 48 h, read-out: Activity"}, "UACC-62 [3]": {"test_system": "UACC-62", "test": "Growth inhibition of human UACC62 cells assessed as cell growth at 3X10'-8 M after 48 hrs by sulforhodamine B assay", "conditions": "UACC-62, 48 h, read-out: Activity"}, "NCI-H23": {"test_system": "NCI-H23", "test": "Growth inhibition of human NCI-H23 cells assessed as cell growth at 3X10'-9 M after 48 hrs by sulforhodamine B assay", "conditions": "NCI-H23, 48 h, read-out: Activity"}, "M14": {"test_system": "M14", "test": "Growth inhibition of human M14 cells assessed as cell growth at 3X10'-6 M after 48 hrs by sulforhodamine B assay", "conditions": "M14, 48 h, read-out: Activity"}, "CCRF-CEM [4]": {"test_system": "CCRF-CEM", "test": "Growth inhibition of human CCRF-CEM cells assessed as cell growth at 3X10'-6 M after 48 hrs by sulforhodamine B assay", "conditions": "read-out: Activity"}, "CAKI-1": {"test_system": "CAKI-1", "test": "Growth inhibition of human CAKI-1 cells assessed as cell growth at 3X10'-9 M after 48 hrs by sulforhodamine B assay", "conditions": "CAKI-1, 48 h, read-out: Activity"}, "SW-620": {"test_system": "SW-620", "test": "Growth inhibition of human SW620 cells assessed as cell growth at 3X10'-9 M after 48 hrs by sulforhodamine B assay", "conditions": "SW-620, 48 h, read-out: Activity"}, "A498 [5]": {"test_system": "A498", "test": "Growth inhibition of human A498 cells assessed as cell growth at 3X10'-5 M after 48 hrs by sulforhodamine B assay", "conditions": "A498, 48 h, read-out: Activity"}, "OVCAR-4": {"test_system": "OVCAR-4", "test": "Growth inhibition of human OVCAR4 cells assessed as cell growth at 3X10'-8 M after 48 hrs by sulforhodamine B assay", "conditions": "OVCAR-4, 48 h, read-out: Activity"}, "TK-10": {"test_system": "TK-10", "test": "Growth inhibition of human TK10 cells assessed as cell growth at 3X10'-5 M after 48 hrs by sulforhodamine B assay", "conditions": "TK-10, 48 h, read-out: Activity"}, "SK-OV-3 [6]": {"test_system": "SK-OV-3", "test": "Growth inhibition of human SKOV3 cells assessed as cell growth at 3X10'-9 M after 48 hrs by sulforhodamine B assay", "conditions": "SK-OV-3, 48 h, read-out: Activity"}, "NCI-H322M": {"test_system": "NCI-H322M", "test": "Growth inhibition of human NCI-H322M cells assessed as cell growth at 3X10'-7 M after 48 hrs by sulforhodamine B assay", "conditions": "read-out: Activity"}, "HOP-62": {"test_system": "HOP-62", "test": "Growth inhibition of human HOP62 cells assessed as cell growth at 3X10'-5 M after 48 hrs by sulforhodamine B assay", "conditions": "HOP-62, 48 h, read-out: Activity"}, "K562": {"test_system": "K562", "test": "Growth inhibition of human K562 cells assessed as cell growth at 3X10'-8 M after 48 hrs by sulforhodamine B assay", "conditions": "K562, 48 h, read-out: Activity"}, "[7]": {"test": "Growth inhibition of human Hs 578T cells assessed as cell growth at 3X10'-8 M after 48 hrs by sulforhodamine B assay", "conditions": "read-out: Activity"}, "PC-3 [8]": {"test_system": "PC-3", "test": "Growth inhibition of human PC3 cells assessed as cell growth at 3X10'-8 M after 48 hrs by sulforhodamine B assay", "conditions": "PC-3, 48 h, read-out: Activity"}, "SNB-75": {"test_system": "SNB-75", "test": "Growth inhibition of human SNB75 cells assessed as cell growth at 3X10'-9 M after 48 hrs by sulforhodamine B assay", "conditions": "SNB-75, 48 h, read-out: Activity"}, "ACHN": {"test_system": "ACHN", "test": "Growth inhibition of human ACHN cells assessed as cell growth at 3X10'-7 M after 48 hrs by sulforhodamine B assay", "conditions": "read-out: Activity"}, "LOX IMVI": {"test_system": "LOX IMVI", "test": "Growth inhibition of human LOXIMVI cells assessed as cell growth at 3X10'-9 M after 48 hrs by sulforhodamine B assay", "conditions": "read-out: Activity"}, "SK-OV-3 [9]": {"test_system": "SK-OV-3", "test": "Growth inhibition of human SKOV3 cells assessed as cell growth at 3X10'-6 M after 48 hrs by sulforhodamine B assay", "conditions": "SK-OV-3, 48 h, read-out: Activity"}, "CCRF-CEM [10]": {"test_system": "CCRF-CEM", "test": "Growth inhibition of human CCRF-CEM cells assessed as cell growth at 3X10'-5 M after 48 hrs by sulforhodamine B assay", "conditions": "read-out: Activity"}, "SK-MEL-28 [11]": {"test_system": "SK-MEL-28", "test": "Growth inhibition of human SK-MEL-28 cells assessed as cell growth at 3X10'-5 M after 48 hrs by sulforhodamine B assay", "conditions": "SK-MEL-28, 48 h, read-out: Activity"}, "UACC-62 [12]": {"test_system": "UACC-62", "test": "Growth inhibition of human UACC62 cells assessed as cell growth at 3X10'-7 M after 48 hrs by sulforhodamine B assay", "conditions": "UACC-62, 48 h, read-out: Activity"}, "SK-MEL-28 [13]": {"test_system": "SK-MEL-28", "test": "Growth inhibition of human SK-MEL-28 cells assessed as cell growth at 3X10'-7 M after 48 hrs by sulforhodamine B assay", "conditions": "SK-MEL-28, 48 h, read-out: Activity"}, "PC-3 [14]": {"test_system": "PC-3", "test": "Growth inhibition of human PC3 cells assessed as cell growth at 3X10'-7 M after 48 hrs by sulforhodamine B assay", "conditions": "PC-3, 48 h, read-out: Activity"}, "IGROV-1": {"test_system": "IGROV-1", "test": "Growth inhibition of human IGROV1 cells assessed as cell growth at 3X10'-5 M after 48 hrs by sulforhodamine B assay", "conditions": "IGROV-1, 48 h, read-out: Activity"}, "UACC-257": {"test_system": "UACC-257", "test": "Growth inhibition of human UACC257 cells assessed as cell growth at 3X10'-9 M after 48 hrs by sulforhodamine B assay", "conditions": "UACC-257, 48 h, read-out: Activity"}, "SF-295": {"test_system": "SF-295", "test": "Growth inhibition of human SF295 cells assessed as cell growth at 3X10'-7 M after 48 hrs by sulforhodamine B assay", "conditions": "SF-295, 48 h, read-out: Activity"}, "MDA-MB-231": {"test_system": "MDA-MB-231", "test": "Growth inhibition of human MDA-MB-231 cells assessed as cell growth at 3X10'-6 M after 48 hrs by sulforhodamine B assay", "conditions": "MDA-MB-231, 48 h, read-out: Activity"}, "RXF 393": {"test_system": "RXF 393", "test": "Growth inhibition of human RXF393 cells assessed as cell growth at 3X10'-9 M after 48 hrs by sulforhodamine B assay", "conditions": "RXF 393, 48 h, read-out: Activity"}, "U-251": {"test_system": "U-251", "test": "Growth inhibition of human U251 cells assessed as cell growth at 3X10'-6 M after 48 hrs by sulforhodamine B assay", "conditions": "U-251, 48 h, read-out: Activity"}, "NCI-H460": {"test_system": "NCI-H460", "test": "Growth inhibition of human NCI-H460 cells assessed as cell growth at 3X10'-8 M after 48 hrs by sulforhodamine B assay", "conditions": "NCI-H460, 48 h, read-out: Activity"}}}
{"smiles": "COc1cc(-c2nn(-c3cccc(NC(=O)Nc4ccc(Cl)c(C(F)(F)F)c4)c3)cc2-c2ccncc2)ccc1Cl", "values": [{"measurement": "growth at 3 µM", "setting": "[1]", "result": 3, "unit": "%"}, {"measurement": "growth at 0.3 µM", "setting": "A498 [2]", "result": 76, "unit": "%"}, {"measurement": "growth at 0.003 µM", "setting": "HL-60(TB)", "result": 101, "unit": "%"}, {"measurement": "growth at 30 µM", "setting": "SNB-19", "result": -23, "unit": "%"}, {"measurement": "growth at 0.03 µM", "setting": "UACC-62 [3]", "result": 94, "unit": "%"}, {"measurement": "growth at 0.003 µM", "setting": "NCI-H23", "result": 100, "unit": "%"}, {"measurement": "growth at 3 µM", "setting": "M14", "result": 4, "unit": "%"}, {"measurement": "growth at 3 µM", "setting": "CCRF-CEM [4]", "result": 3, "unit": "%"}, {"measurement": "growth at 0.003 µM", "setting": "CAKI-1", "result": 92, "unit": "%"}, {"measurement": "growth at 0.003 µM", "setting": "SW-620", "result": 101, "unit": "%"}, {"measurement": "growth at 30 µM", "setting": "A498 [5]", "result": -25, "unit": "%"}, {"measurement": "growth at 0.03 µM", "setting": "OVCAR-4", "result": 96, "unit": "%"}, {"measurement": "growth at 30 µM", "setting": "TK-10", "result": -15, "unit": "%"}, {"measurement": "growth at 0.003 µM", "setting": "SK-OV-3 [6]", "result": 105, "unit": "%"}, {"measurement": "growth at 0.3 µM", "setting": "NCI-H322M", "result": 91, "unit": "%"}, {"measurement": "growth at 30 µM", "setting": "HOP-62", "result": -51, "unit": "%"}, {"measurement": "growth at 0.03 µM", "setting": "K562", "result": 105, "unit": "%"}, {"measurement": "growth at 0.03 µM", "setting": "[7]", "result": 89, "unit": "%"}, {"measurement": "growth at 0.03 µM", "setting": "PC-3 [8]", "result": 95, "unit": "%"}, {"measurement": "growth at 0.003 µM", "setting": "SNB-75", "result": 90, "unit": "%"}, {"measurement": "growth at 0.3 µM", "setting": "ACHN", "result": 97, "unit": "%"}, {"measurement": "growth at 0.003 µM", "setting": "LOX IMVI", "result": 97, "unit": "%"}, {"measurement": "growth at 3 µM", "setting": "SK-OV-3 [9]", "result": 21, "unit": "%"}, {"measurement": "growth at 30 µM", "setting": "CCRF-CEM [10]", "result": 2, "unit": "%"}, {"measurement": "growth at 30 µM", "setting": "SK-MEL-28 [11]", "result": -70, "unit": "%"}, {"measurement": "growth at 0.3 µM", "setting": "UACC-62 [12]", "result": 89, "unit": "%"}, {"measurement": "growth at 0.3 µM", "setting": "SK-MEL-28 [13]", "result": 95, "unit": "%"}, {"measurement": "growth at 0.3 µM", "setting": "PC-3 [14]", "result": 80, "unit": "%"}, {"measurement": "growth at 30 µM", "setting": "IGROV-1", "result": -37, "unit": "%"}, {"measurement": "growth at 0.003 µM", "setting": "UACC-257", "result": 94, "unit": "%"}, {"measurement": "growth at 0.3 µM", "setting": "SF-295", "result": 93, "unit": "%"}, {"measurement": "growth at 3 µM", "setting": "MDA-MB-231", "result": -9, "unit": "%"}, {"measurement": "growth at 0.003 µM", "setting": "RXF 393", "result": 98, "unit": "%"}, {"measurement": "growth at 3 µM", "setting": "U-251", "result": 7, "unit": "%"}, {"measurement": "growth at 0.03 µM", "setting": "NCI-H460", "result": 102, "unit": "%"}]}
